Results from patent US5955100A, “Prodrugs their preparation and use as pharmaceuticals” (priority 1992, dated 1999).

Tests used:
[1] = tested on: human colon tumors (LoVo); assay: Inhibition of growth of human colon tumors (LoVo) growing subcutaneously in the nude mouse; type: in vivo, human tumor in nude mouse; settings: for T/C: 1 × i.v., d0
Experimental: The tested human tumors are routinely maintained and passaged in nude mice. The tumors are tested for human characteristics by immunohistochemistry using monoclonal antibodies at each 3rd passage. The tumor is removed under sterile conditions and cut into small pieces of about 5-10 mm^3. One piece of tumor is implanted subcutaneously into the side of each nude mouse. After about 7-14 days, the piece of tumor is adherent to the surrounding tissue, and the tumor size A is determined with the aid of a calliper rule and measurement of two opposite diameters (a, b) by the following formula: […]
After another measurement of the tumor size carried out at an interval of 3 days, the animals are randomized to the control group and to the groups to be treated (6 animals in each group). Only animals in which a progressive tumor growth was found are used for this. Starting with the day of randomization ([…]), the animals are treated with the test substances in accordance with the scheme indicated below. Twice a week the two tumor diameters are measured for each mouse, and the individual tumor areas are calculated in accordance with the abovementioried formula.
After completion of the experiment, the relative tumor sizes for each individual animal on the particular measurement day are calculated by the formula: Ar =A(day X) /A(day 0). The median for the treated group (AT) is then related to the median for the relative control tumor size (AC), and T/C%=AT /AC […] is calculated. The statistical significance of the antitumor effect is determined with the aid of the Wilcoxon U test.

[2] = Plasma half-life after i.v. injection, liposomal and free prodrug; type: in vivo, CD1 nu/nu mice
[3] = Acute toxicity in nude mice (LD50, survival on day 14); settings: mouse, in vivo, iv, nude mice (CD-1, nu/nu), 5 min infusion
Experimental: To determine the acute toxicity, nude mice (CD-1, nu/nu) were infused on day 0 with various doses of the test substance dissolved in 0.5 ml of 5% glucose solution over a period of 5 minutes. Control groups receive merely 0.5 ml of 5% glucose solution. 5 mice are used per concentration of the test substance. The number of mice surviving on day 14 is determined, and the Litchfield Wilcoxon method is used to determine the LD50.

[4] = tested on: Salmonella typhimurium antigen (STA) induced foot swelling; assay: Delayed Type Hypersensitivity (DTH), 24 h foot swelling; type: in vivo, mouse
Source text: c) DTH model in the mouse
The effect of 14-O-[4-(beta-D-glucuronyloxy)-3nitrobenzylaminocarbonyl]doxorubicin (prodrug) on inflammation was investigated in a model of delayed type cutaneous reaction (Delayed Type Hypersensitivity, DTH) corresponding to the method described by Collins and Mackaness (J. Immunol. 101: 830-845,1968).
In this model, mice were immunized with a defined amount of killed Salmonella typhimurium bacteria (109) twice at an interval of one week. Three. weeks after the first immunization a DTH reaction was provoked by intraplantar injection of a Salmonella typhimurium antigen (STA). A local inflammatory infiltrate which was composed of granulocytes, macrophages, lymphocytes and accumulated interstitial fluid developed. The extent of the reaction was measured by the increase in foot swelling 24 hours after provocation of the reaction. The effect of the prodrug on the inflammatory reaction was tested with two treatment schemes. One group received a single intravenous administration of 500 mg/kg prodrug 2 hours after the STA injection, and another group received three injections of, in each case, 300 mg/kg prodrug at times 2, 5 and 8 hours after the STA injection.

[5] = tested on: human tumor xenografts (ovarian, breast, stomach, lung and bowel carcinomas); assay: Prodrug activation/monotherapy in human tumor xenografts; type: in vivo, human tumor in nude mouse
Source text: It was possible to show by means of a histochemical test (Murray et al., the journal of histochemistry and cytochemistry 37, 643-652, 1989) for determining. functional human β-glucuronidase that functionally active human .rho.-glucuronidase is present within the necrosis; i.e. cells whose cytoplasmic membrane has already been damaged still contain functionally active β-glucuronidase in the cytoplasm. This human β-glucuronidase which is localized in the necrosis and is not protected by the cytoplasmic membrane brings about the cleavage of the hydrophilic prodrug to the drug in the LoVo tumor.

[6] = Baba et al., Gann 69, 1978; cited from earlier work
[7] = butyric acid liberated from prodrugs in vivo; cited from earlier work
adjuvant arthritis = assay: Adjuvant arthritis in the rat; type: in vivo
Source text: b) Adjuvant arthritis in the rat

EAE = EAE model; type: in vivo
Source text: Schorlemmer et al., Drugs Exptl. Clin. Res. XVII (10/11) 461-469 (1991)

mouse mammary carcinoma = settings: ten i.v. administrations and glucose acidification; treatment started 24 h after implantation; cited from earlier work

In the case of `COc1cccc2c1C(=O)c1c(O)c3c(c(O)c1C2=O)C[C@@](O)(C(=O)CO)C[C@@H]3O[C@H]1C[C@H](N)[C@H](O)[C@H](C)O1` [Doxorubicin, doxorubicin, reference compound], the T/C ([1]; 12 mg/kg) is reported as 78.4% and the T/C ([1]; 12 mg/kg, listed as doxorubicin) is reported as ~ 80%.

For `COc1cccc2c1C(=O)c1c(O)c3c(c(O)c1C2=O)C[C@@](O)(C(=O)COC(=O)NCc1ccc(O[C@@H]2O[C@H](C(=O)O)[C@@H](O)[C@H](O)[C@H]2O)c([N+](=O)[O-])c1)C[C@@H]3O[C@H]1C[C@H](N)[C@H](O)[C@H](C)O1` [Compound 8, 14-O-[4-(Beta-D-glucuronyloxy)-3-nitrobenzylaminocarbonyl]doxorubicin], the T/C ([1]; 500 mg/kg, listed as Prodrug) was 40.0%, the T/C ([1]; 500 mg/kg, listed as prodrug) was ~ 40% and the “efficacy compared with fusion protein in combination with prodrug” value ([1]; LoVo, prodrug alone) was “as effective as in the group which received fusion protein in combination with prodrug”. The “statistical significance (p) of difference to doxorubicin treatment” value ([1]; tumor growth, vs doxorubicin treatment) was less than 0.05, the half-life ([2]; mouse, plasma, iv, free prodrug, CD1 nu/nu mice (data not shown)) was roughly 20 min and the “increase in plasma half-life after protein preincubation” value ([2]; preincubation with 50 g/l human serum albumin or human acid alpha-1 glycoprotein) was “less distinct increase in the plasma half-life”. The LD50 at 336 h [3] was greater than 1500 mg/kg, the “24 h foot swelling” value ([4]; 300 mg/kg, 3 × i.v. (t = +2, +5, +8 h), marked xx) was 1.1 ± 1.3 and the “24 h foot swelling” value ([4]; 500 mg/kg, 1 × i.v. (t = +2 h), mean ± spread, marked x) was 3.5 ± 3.9. For the same compound, the “effect by comparison with standard therapy” value ([4]; DTH) was “superior effect”, the “reduction in the inflammatory reaction” value ([4]; both prodrug treatment schemes) was “significant reduction in the inflammatory reaction” and the “effect compared with ibuprofen” value ([4]; three administrations of prodrug (300 mg/kg)) was “slightly superior to the standard therapy”. For the same compound, the “effect of prodrug monotherapy on tumors without significant necrosis” value ([5]; non-necrotic tumors (data not shown)) was “cannot be treated by prodrug monotherapy” and the “endogenous activation by central necrosis” value ([5]; ovarian, breast, stomach, lung and bowel carcinoma xenografts) was “confirmed in a large number of human tumor xenografts”.

For `O=c1[nH]cc(F)c(=O)[nH]1` [Compound 5-FU, 5-fluorouracil], the LD50 [6] is listed as 200 mg/kg.

For `CCCC(=O)O` [butyric acid], the “therapeutic effects compared with cisplatin” value [7] is listed as “inferior to those of a standard cytostatic (cisplatin)”.

For `CC(OC(=O)OCc1ccc(O[C@@H]2O[C@H](C(=O)O)[C@@H](O)[C@H](O)[C@H]2O)c([N+](=O)[O-])c1)=C(C#N)C(=O)Nc1ccc(C(F)(F)F)cc1` [Compound 22, 4-(β-D-Glucuronyloxy)-3-nitrobenzyl 2-[1-cyano-1-(N-4-trifluoromethylphenyl)carbamoyl]propen-1-yl carbonate], the “activity by comparison with the active substance (Leflunomide)” value (adjuvant arthritis) was “superior activity” and the “activity by comparison with the active substance (Leflunomide)” value (EAE) was “superior activity”.

For `CC(C)Cc1ccc(C(C)C(=O)O)cc1` (stereo not shown) [Ibuprofen, ibuprofen, reference compound], the “24 h foot swelling” value ([4]; 200 mg/kg, 1 × p.o. (t = 0), marked xx) was 1.7 ± 2.2.

For `O=C(O)[C@H]1O[C@@H](Oc2nc(=O)[nH]cc2F)[C@H](O)[C@@H](O)[C@@H]1O` [FUOG, 5-fluorouracil O-.rho.-D-glucuronide], the “effect on mouse mammary carcinoma” value (mouse mammary carcinoma) is listed as “distinct effect”.
